This is an account of results in patent publication US20230365530A1, “QUINAZOLINE-2,4-DIAMINE DERIVATIVE AND PHARMACEUTICAL COMPOSITION FOR PREVENTING OR TREATING CANCER COMPRISING SAME AS ACTIVE INGREDIENT” (THE ASEAN FOUNDATION, priority 2020, published 2023).

EHMT2 (Euchromatic histone-lysine N-methyltransferase 2), sequence (Q96KQ7 whole entry): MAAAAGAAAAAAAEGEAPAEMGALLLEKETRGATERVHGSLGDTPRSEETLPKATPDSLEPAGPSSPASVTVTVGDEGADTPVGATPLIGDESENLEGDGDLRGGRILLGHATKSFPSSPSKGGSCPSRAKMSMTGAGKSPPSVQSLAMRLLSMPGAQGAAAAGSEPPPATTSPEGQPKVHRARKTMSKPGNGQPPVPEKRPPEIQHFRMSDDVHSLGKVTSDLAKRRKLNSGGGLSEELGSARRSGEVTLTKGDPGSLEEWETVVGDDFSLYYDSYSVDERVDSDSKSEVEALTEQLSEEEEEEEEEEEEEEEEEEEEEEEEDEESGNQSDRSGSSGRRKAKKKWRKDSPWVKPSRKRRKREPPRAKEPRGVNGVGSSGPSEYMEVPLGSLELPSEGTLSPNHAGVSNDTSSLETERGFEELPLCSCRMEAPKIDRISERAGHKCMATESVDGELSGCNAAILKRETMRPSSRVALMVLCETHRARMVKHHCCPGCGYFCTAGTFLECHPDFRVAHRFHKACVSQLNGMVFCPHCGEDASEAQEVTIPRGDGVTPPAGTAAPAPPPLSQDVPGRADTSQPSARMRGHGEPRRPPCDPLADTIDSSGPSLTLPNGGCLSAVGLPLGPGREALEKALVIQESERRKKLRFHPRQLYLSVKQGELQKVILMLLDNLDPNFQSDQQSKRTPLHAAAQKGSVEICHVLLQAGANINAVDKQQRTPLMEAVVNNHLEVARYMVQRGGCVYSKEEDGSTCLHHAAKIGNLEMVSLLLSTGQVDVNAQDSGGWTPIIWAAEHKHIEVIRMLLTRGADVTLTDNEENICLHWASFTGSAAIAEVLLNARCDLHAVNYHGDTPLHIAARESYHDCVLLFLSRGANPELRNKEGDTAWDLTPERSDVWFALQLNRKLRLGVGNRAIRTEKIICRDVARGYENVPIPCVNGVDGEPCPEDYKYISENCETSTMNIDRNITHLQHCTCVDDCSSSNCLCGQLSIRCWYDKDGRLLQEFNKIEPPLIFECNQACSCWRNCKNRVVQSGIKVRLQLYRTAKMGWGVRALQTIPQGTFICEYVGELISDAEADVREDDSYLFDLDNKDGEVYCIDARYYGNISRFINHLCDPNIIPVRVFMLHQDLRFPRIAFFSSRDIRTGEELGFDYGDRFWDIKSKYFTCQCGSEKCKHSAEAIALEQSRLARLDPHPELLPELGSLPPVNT

The assay concerns the target EHMT2 (Euchromatic histone-lysine N-methyltransferase 2) (Homo sapiens (Human), UniProt Q96KQ7). Nature of the assay: EHMT2 enzyme inhibition, LANCE TR-FRET. The assay is classed as biochemical. The following applies: histone H3 peptide, 1 hour at room temperature. The procedure: In order to analyze the enzyme inhibitory efficacy of the compounds of Examples 1 to 89, EHMT2 (Euchromatic histone-lysine N-methyltransferase 2) enzyme activity was measured using the LANCE TR-FRET™ analysis method of Perkin Elmer. When the EHMT2 enzyme is activated, the 9th lysine residue of the biotinylated-histone peptide is methylated and the EU-conjugated antibody is combined to the methylated histone peptide. Then, when the complex is irradiated with light of excitation wavelength, the complex emits light having a wavelength of 665 nm through FRET phenomenon. Accordingly, fluorescence was measured, and IC50 values were calculated through a software to evaluate the EHMT2 enzyme activity inhibitory effect of the compounds of Examples 1 to 89.
Specific experimental methods are as follows. First, the compounds of Examples 1 to 89 of 1 nM to 100 μM (4× conc.) were put into a 384 well plate (25 μL/well), and 2 μM EEMT2/G9a enzyme (4× conc.) was put into the 384 well plate (25 μL/well). The plate was then centrifuged at 1,500 rpm for 5 seconds after sealing the plate with plate sealing foil. After incubating the EHMT2/G9a enzyme, SAM, and the compounds of Examples above at room temperature for 10 minutes, 2 μM histone H3 peptide (4× conc.) was added to the 384-well plate (25 μL/well). After sealing the plate with plate sealing foil and centrifuging at 1,500 rpm for 5 seconds, an enzymatic reaction was performed at room temperature for 1 hour. Upon completion of the enzyme reaction, 5 μL each of 200 nM Ulight™-Streptavidin (4× conc.) and 8 nM Eu-antibody (4× conc.) was added to each well of the plate. The plate was sealed with plate sealing foil, centrifuged at 1,500 rpm for 5 seconds and reacted at room temperature for 1 hour. The signal values were measured with Envision (Ex 320 nm, Em 665 nm), and all background values obtained by reacting without enzyme were deleted from the measured raw data values. Then, the EHMT2 enzyme activity inhibitory effect of the compounds of Examples 1 to 89 was converted into % values, and compared with the EHMT2 activity when treated with 4% DMSO vehicle (=0 nM compound) as 100%.
In general terms: Time-resolved FRET reads energy transfer from a long-lived donor to a nearby acceptor.
As for `COc1cc2c(NC3CCN(C4CC4)CC3)nc(N3CCCCC3)nc2cc1C#CCCN(C)C` [Example 24, N-(1-cyclopropylpiperidine-4-yl)-7-(4-(dimethylamino)-1-butyne-1-yl)-6-methoxy-2-(piperidine-1-yl)quinazoline-4-amine], the IC50 was < 100 nM.
As for `COc1cc2c(NC3CCN(C4CC4)CC3)nc(N3CCCC3)nc2cc1C#CCCN1CCCC1` [Example 54, N-(1-cyclopropylpiperidine-4-yl)-6-methoxy-2-(pyrrolidine-1-yl)-7-(4-(pyrrolidine-1-yl)-1-butyne-1-yl)quinazoline-4-amine], the figure is < 100 nM; as for `COc1cc2c(NC3CCN(C(C)C)CC3)nc(N3CCC(N(C)C)CC3)nc2cc1C#CCCN(C)C` [Example 11, 7-(4-(dimethylamino)-1-butyne-1-yl)-2-(4-(dimethylamino)piperidine-1-yl)-N-(1-isopropylpiperidine-4-yl)-6-methoxyquinazoline-4-amine], 1000 to 10000 nM; as for `COc1cc2c(NC3CCN(C(C)C)CC3)nc(N3CCC(F)(F)CC3)nc2cc1C#CCCN1CCCC1` [Example 35, 2-(4,4-difluoropiperidine-1-yl)-N-(1-isopropylpiperidine-4-yl)-6-methoxy-7-(4-(pyrrolidine-1-yl)-1-butyne-1-yl)quinazoline-4-amine], 1000 to 10000 nM.
To `COc1cc2c(NC3CCN(C(C)C)CC3)nc(N3CCCCCC3)nc2cc1C#CCCN1CCCC1` [Example 36] belongs < 100 nM.
As for `COc1cc2c(NC3CCN(C(C)C)CC3)nc(N3CCCC3)nc2cc1C#CCCN(C)C` [Example 6, 7-(4-(dimethylamino)-1-butyne-1-yl)-N-(1-isopropylpiperidine-4-yl)-6-methoxy-2-(pyrrolidine-1-yl)quinazoline-4-amine], the figure is < 100 nM; as for `COc1cc2c(NC3CCN(C(C)C)CC3)nc(N3CCC4(CCCC4)C3)nc2cc1C#CCCN1CCCCC1` [Example 41, N-(1-isopropylpiperidine-4-yl)-6-methoxy-7-(4-(piperidine-1-yl)-1-butyne-1-yl)-2-(2-azaspiro[4.4]nonane-2-yl)quinazoline-4-amine], 1000 to 10000 nM.
Compound `COc1cc2c(NC3CCN(C(C)C)CC3)nc(N3CCCCC3)nc2cc1C#CCCC(=O)N(C)C` [Example 1, 5-(4-((1-isopropylpiperidine-4-yl)amino)-6-methoxy-2-(piperidine-1-yl)quinazoline-7-yl)-N,N-dimethylpentyne-4-amide] returned an IC50 of 10000 to 100000 nM.
To `COc1cc2c(NC3CCN(C(C)C)CC3)nc(N3CCCC3)nc2cc1/C=C/CCN(C)C` [Example 86, (E)-7-(4-(dimethylamino)-1-butene-1-yl)-N-(1-isopropylpiperidine-4-yl)-6-methoxy-2-(pyrrolidine-1-yl)quinazoline-4-amine] belongs 100 to 1000 nM; to `COc1cc2c(NC3CCN(C(C)C)CC3)nc(N3CCN(C)CC3)nc2cc1C#CCCN1CCCCC1` [Example 39, N-(1-Disopropylpiperidine-4-yl)-6-methoxy-2-(4-methylpiperazine-1-yl)-7-(4-(piperidine-1-yl)-1-butyne-1-yl)quinazoline-4-amine], 1000 to 10000 nM.
With `COc1cc2c(NCc3cccnc3)nc(N3CCCC3)nc2cc1C#CCCN1CCCC1` [Example 71, 6-methoxy-N-(pyridine-3-ylmethyl)-2-(pyrrolidine-1-yl)-7-(4-(pyrrolidine-1-yl)-1-butyne-1-yl)quinazoline-4-amine], the IC50 fell in the range of 100 to 1000 nM.
As for `COc1cc2c(NC3CCN(C(C)C)CC3)nc(N3CCCCC3)nc2cc1/C=C/CCN1CCCCC1` [Example 66, (E)-N-(1-isopropylpiperidine-4-yl)-6-methoxy-2-(piperidine-1-yl)-7-(4-(piperidine-1-yl)-1-butene-1-yl)quinazoline-4-amine], the figure is < 100 nM.
The compound `COc1cc2c(NC3CCN(c4ccccc4)CC3)nc(N3CCCCC3)nc2cc1C#CCCN(C)C` [Example 25, 7-(4-(dimethylamino)-1-butyne-1-yl)-6-methoxy-N-(1-phenylpiperidine-4-yl)-2-(piperidine-1-yl)quinazoline-4-amine] gave an IC50 of 1000 to 10000 nM.
To `COc1cc2c(NCCN(C)C)nc(N3CCCCC3)nc2cc1C#CCCN(C)C` [Example 28, N1-(7-(4-(dimethylamino)-1-butyne-1-yl)-6-methoxy-2-(piperidine-1-yl)quinazoline-4-yl)-N2,N2-dimethylethane-1,2-diamine] belongs 100 to 1000 nM.
To `COc1cc2c(NCCc3ccncc3)nc(N3CCCCC3)nc2cc1C#CCCN(C)C` [Example 34] belongs 10000 to 100000 nM; to `COc1cc2c(NC3CCN(C4CC4)CC3)nc(N3CC[C@H](F)C3)nc2cc1C#CCCN1CCCC1` [Example 75, (S)-N-(1-cyclopropylpiperidine-4-yl)-2-(3-fluoropyrrolidine-1-yl)-6-methoxy-7-(4-(pyrrolidine-1-yl)-1-butyne-1-yl)quinazoline-4-amine], < 100 nM; to `COc1cc2c(NCC3CCN(C)CC3)nc(N3CCCCC3)nc2cc1C#CCCN(C)C` [Example 31, 7-(4-(dimethylamino)-1-butyne-1-yl)-6-methoxy-N-((1-methylpiperidine-4-yl)methyl)-2-(piperidine-1-yl)quinazoline-4-amine], 1000 to 10000 nM.
To `COc1cc2c(NC3CCN(C(C)C)CC3)nc(N3CCCCC3)nc2cc1C#CCCC(=O)N1CCCC1` [Example 2, 5-(4-((1-isopropylpiperidine-4-yl)amino)-6-methoxy-2-(piperidine-1-yl)quinazoline-7-yl)-1-(pyrrolidine-1-yl)4-pentyne-1-one] belongs 10000 to 100000 nM.
For the compound `COc1cc2c(NCCN(C)C)nc(N3CCCN(C)CC3)nc2cc1C#CCCN1CCCC1` [Example 62, N1-(6-methoxy-2-(4-methyl-1,4-diazepane-1-yl)-7-(4-(pyrrolidine-1-yl)-1-butyne-1-yl)quinazoline-4-yl)-N2,N2-dimethylethane-1,2-diamine], the IC50 was < 100 nM.
Regarding `COc1cc2c(NC3CCN(C4CC4)CC3)nc(N3CC[C@@H](F)C3)nc2cc1C#CCCN(C)C` [Example 76, (R)-N-(1-cyclopropylpiperidine-4-yl)-7-(4-(dimethylamino)-1-butyne-1-yl)-2-(3-fluoropyrrolidine-1-yl)-6-methoxyquinazoline-4-amine], the IC50 lay in the range of 1000 to 10000 nM.
In turn, `COc1cc2c(NC3CCN(C(C)C)CC3)nc(N3CCN(C)CC3)nc2cc1C#CCCN1CCCC1` [Example 38, N-(1-isopropylpiperidine-4-yl)-6-methoxy-2-(4-methylpiperazine-1-yl)-7-(4-(pyrrolidine-1-yl)-1-butyne-1-yl)quinazoline-4-amine] registered an IC50 of 100 to 1000 nM.
Regarding `COc1cc2c(NC3CCN(C(C)C)CC3)nc(N3CCCCC3)nc2cc1C#CCCN1CCCCC1` [Example 12, N-(1-isopropylpiperidine-4-yl)-6-methoxy-2-(piperidine-1-yl)-7-(4-(piperidine-1-yl)-1-butyne-1-yl)quinazoline-4-amine], the half-inhibitory concentration (IC50) is < 100 nM.
As for `COc1cc2c(NC3CCN(C(C)C)CC3)nc(N3CCCCC3)nc2cc1C#CCCN1CCCC1` [Example 16, N-(1-isopropylpiperidine-4-yl)-6-methoxy-2-(piperidine-1-yl)-7-(4-(pyrrolidine-1-yl)-1-butyne-1-yl)quinazoline-4-amine], the figure is < 100 nM; as for `COc1cc2c(NCc3cccnc3)nc(N3CCCCC3)nc2cc1C#CCCN(C)C` [Example 26, 7-(4-(dimethylamino)-1-butyne-1-yl)-6-methoxy-2-(piperidine-1-yl)-N-(pyridine-3-ylmethyl)quinazoline-4-amine], 100 to 1000 nM; as for `CCCN1CCC(Nc2nc(N3CCCCC3)nc3cc(C#CCCN4CCCC4)c(OC)cc23)CC1` [Example 67, 6-methoxy-2-(piperidine-1-yl)-N-(1-propylpiperidine-4-yl)-7-(4-(pyrrolidine-1-yl)-1-butyne-1-yl)quinazoline-4-amine], < 100 nM.
To `COc1cc2c(NCCN3CCCC3)nc(N3CCCCC3)nc2cc1C#CCCN(C)C` [Example 20, 7-(4-(dimethylamino)-1-butyne-1-yl)-6-methoxy-2-(piperidine-1-yl)-N-(2-(pyrrolidine-1-yl)ethyl)quinazoline-4-amine] belongs 1000 to 10000 nM; to `COc1cc2c(NCCN(C)C)nc(N3CC[C@@H](F)C3)nc2cc1C#CCCN1CCCC1` [Example 80, (R)-N1-(2-(3-fluoropyrrolidine-1-yl)-6-methoxy-7-(4-(pyrrolidine-1-yl)-1-butyne-1-yl)quinazoline-4-yl)-N2,N2-dimethylethane-1,2-diamine], 100 to 1000 nM; to `COc1cc2c(NCCN(C)C)nc(N(C)C)nc2cc1C#CCCN1CCCC1` [Example 61, N4-(2-(dimethylamino)ethyl)-6-methoxy-N2,N2-dimethyl-7-(4-(pyrrolidine-1-yl)-1-butyne-1-yl)quinazoline-2,4-diamine], < 100 nM.

For orientation: IC50 means the concentration that inhibits the measured activity by half.
